Data on six molecules can be found in patent US9771406B2, “Peptidic dual GLP-1/glucagon receptor agonists derived from exendin-4” (priority 2014, dated 2017).

Data set [1] can be described thus: Solubility testing of exendin-4 derivatives (HPLC-UV of supernatant). The class given is physicochemical. The method, then: Prior to the testing of solubility and stability of a peptide batch, its purity (HPLC-UV) was determined. […] Therefore, solutions from solid samples were prepared in different buffer systems with a concentration of 10 mg/mL compound based on the previously determined % purity. HPLC-UV was performed after 2 h of gentle agitation from the supernatant, which was obtained by 20 min of centrifugation at 4500 rpm. […] This analysis also served as starting point (t0) for the stability testing.

Data set [2] has as its target T1, human GLP-1 receptor (Homo sapiens, UniProt P43220).
T1 construct: expressed in transfected cells; host or cells: HEK-293
The data set is described as follows: cAMP response of HEK-293 cells stably expressing human GLP-1 receptor (HTRF). The class given is cell-based. To be noted: Table 6; cAMP formation; read-out: EC50 hGLP-1R. The protocol: (§1) cAMP content of cells was determined using a kit from Cisbio Corp. (cat. no. 62AM4PEC) based on HTRF (Homogenous Time Resolved Fluorescence). For preparation, cells were split into T175 culture flasks and grown overnight to near confluency in medium (DMEM/10% FBS). Medium was then removed and cells washed with PBS lacking calcium and magnesium, followed by proteinase treatment with accutase (Sigma-Aldrich cat. no. A6964). Detached cells were washed and resuspended in assay buffer (1×HBSS; 20 mM HEPES, 0.1% BSA, 2 mM IBMX) and cellular density determined. They were then diluted to 400000 cells/ml and 25 μl-aliquots dispensed into the wells of 96-well plates. For measurement, 25 μl of test compound in assay buffer was added to the wells, followed by incubation for 30 minutes at room temperature.
(§2) Potencies of peptidic compounds at the GLP-1, glucagon and GIP receptors were determined by exposing cells expressing human glucagon receptor (hGCG R), human GIP (hGIP R) and human GLP-1 receptor (hGLP-1 R) to the listed compounds at increasing concentrations and measuring the formed cAMP as described in Methods.
A general note: TR-FRET usually uses a lanthanide donor and a delayed reading to cut background.

Data set [3] deals with T2, human GIP receptor (Homo sapiens, UniProt P48546).
T2 construct: expressed in transfected cells; host or cells: HEK-293
T2 sequence (P48546 22-466): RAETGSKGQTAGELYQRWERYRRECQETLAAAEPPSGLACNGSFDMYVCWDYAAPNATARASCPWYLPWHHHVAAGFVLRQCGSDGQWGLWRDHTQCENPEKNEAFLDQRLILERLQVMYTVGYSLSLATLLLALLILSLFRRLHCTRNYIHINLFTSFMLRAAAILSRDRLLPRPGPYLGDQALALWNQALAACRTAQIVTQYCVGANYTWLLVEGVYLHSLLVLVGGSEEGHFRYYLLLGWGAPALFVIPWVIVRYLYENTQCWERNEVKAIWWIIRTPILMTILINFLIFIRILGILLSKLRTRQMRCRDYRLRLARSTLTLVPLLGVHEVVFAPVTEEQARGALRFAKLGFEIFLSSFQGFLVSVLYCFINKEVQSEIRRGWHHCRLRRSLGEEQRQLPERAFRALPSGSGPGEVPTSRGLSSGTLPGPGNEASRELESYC
The data set is described as follows: cAMP response of HEK-293 cells stably expressing human GIP receptor (HTRF). In kind it is cell-based. To be noted: Table 6; cAMP formation; read-out: EC50 hGIP-R. The protocol:
as §1, §2

The target in data set [4] is T3, human glucagon receptor (Homo sapiens, UniProt P47871).
T3 construct: expressed in transfected cells; host or cells: HEK-293
The data set is described as follows: cAMP response of HEK-293 cells stably expressing human glucagon receptor (HTRF). To be noted: Table 6; cAMP formation; read-out: EC50 hGlucagon-R. In kind it is cell-based. The method, then:
as §1, §2

A short description of data set [5]: Stability testing in solution, 7 days at 40° C. (% remaining peptide, HPLC-UV). In kind it is physicochemical. The protocol:
After that time course, the sample was centrifuged for 20 min at 4500 rpm and 0.2 μL of the supernatant were analysed with HPLC-UV.
For determination of the amount of the remaining peptide, the peak areas of the target compound at t0 and t7 were compared, resulting in “% remaining peptide”, following the equation % remaining peptide=[(peak area peptide t7)×100]/peak area peptide t0.
The stability is expressed as “% remaining peptide”.

Like-named read-outs stand apart in the source and are kept apart here. Bounds are passed on as bounds.

T3 sequence (P47871 26-477): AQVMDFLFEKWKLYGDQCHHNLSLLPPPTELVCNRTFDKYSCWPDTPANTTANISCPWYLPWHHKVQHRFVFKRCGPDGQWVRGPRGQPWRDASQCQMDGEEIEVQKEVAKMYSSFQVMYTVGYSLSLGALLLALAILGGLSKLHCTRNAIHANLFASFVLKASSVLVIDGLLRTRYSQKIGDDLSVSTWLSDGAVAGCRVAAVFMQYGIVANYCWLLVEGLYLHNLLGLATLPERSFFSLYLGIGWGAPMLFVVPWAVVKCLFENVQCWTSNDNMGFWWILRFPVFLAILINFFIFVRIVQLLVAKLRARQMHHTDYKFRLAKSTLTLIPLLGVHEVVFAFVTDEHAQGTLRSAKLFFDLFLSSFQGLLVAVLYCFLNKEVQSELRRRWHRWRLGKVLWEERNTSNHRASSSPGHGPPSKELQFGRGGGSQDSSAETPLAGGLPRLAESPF
T1 sequence (P43220 24-463): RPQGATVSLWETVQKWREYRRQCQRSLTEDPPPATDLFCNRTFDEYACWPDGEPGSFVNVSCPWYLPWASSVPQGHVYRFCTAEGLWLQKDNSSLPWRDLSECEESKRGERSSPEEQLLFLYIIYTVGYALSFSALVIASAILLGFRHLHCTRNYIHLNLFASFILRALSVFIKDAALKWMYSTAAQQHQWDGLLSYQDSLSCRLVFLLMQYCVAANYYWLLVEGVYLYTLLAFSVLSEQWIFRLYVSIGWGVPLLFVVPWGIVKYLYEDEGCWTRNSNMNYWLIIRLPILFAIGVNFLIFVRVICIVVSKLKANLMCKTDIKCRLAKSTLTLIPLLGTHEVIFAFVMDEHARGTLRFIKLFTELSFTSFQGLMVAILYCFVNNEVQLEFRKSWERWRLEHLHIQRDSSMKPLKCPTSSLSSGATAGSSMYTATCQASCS

As to `CCCCCCCCCCCCCCCCCC(=O)N[C@@H](CCC(=O)NCCCC[C@H](NC(=O)[C@H](CCC(N)=O)NC(=O)[C@H](CCCCN)NC(=O)[C@H](CO)NC(=O)[C@H](CC(C)C)NC(=O)[C@H](CC(=O)O)NC(=O)[C@H](CO)NC(=O)[C@@H](NC(=O)[C@H](Cc1ccccc1)NC(=O)[C@@H](NC(=O)CNC(=O)[C@H](Cc1c[nH]cn1)NC(=O)[C@@H](CO)NC(=O)[C@@H](N)Cc1c[nH]cn1)[C@@H](C)O)[C@@H](C)O)C(=O)N[C@@H](CCC(=O)O)C(=O)N[C@@H](CCC(=O)O)C(=O)N[C@@H](CCC(=O)O)C(=O)N[C@@H](C)C(=O)N[C@H](C(=O)N[C@@H](CCCNC(=N)N)C(=O)N[C@@H](CC(C)C)C(=O)N[C@@H](Cc1ccccc1)C(=O)N[C@H](C(=O)N[C@@H](CCC(=O)O)C(=O)N[C@@H](Cc1c[nH]c2ccccc12)C(=O)N[C@@H](CC(C)C)C(=O)N[C@@H](CCCCN)C(=O)N[C@@H](C)C(=O)NCC(=O)NCC(=O)N1CCC[C@H]1C(=O)N[C@@H](CO)C(=O)N[C@@H](CO)C(=O)NCC(=O)N[C@@H](C)C(=O)N1CCC[C@H]1C(=O)N1CCC[C@H]1C(=O)N1CCC[C@H]1C(=O)N[C@@H](CO)C(N)=O)[C@@H](C)CC)C(C)C)C(=O)O` [compound 9], the solubility at 2 h in data set [1] (pH 4.5) and in data set [1] (pH 7.4) was above 5000 µg/mL in each case.

Turning to `CCCCCCCCCCCCCCCC(=O)N[C@@H](CCC(=O)N[C@@H](CCC(=O)NCCCC[C@H](NC(=O)[C@H](CCC(N)=O)NC(=O)[C@H](CCCCN)NC(=O)[C@H](CO)NC(=O)[C@H](CC(C)C)NC(=O)[C@H](CC(=O)O)NC(=O)[C@H](CO)NC(=O)[C@@H](NC(=O)[C@H](Cc1ccccc1)NC(=O)[C@@H](NC(=O)CNC(=O)[C@H](CCC(N)=O)NC(=O)C(C)(C)NC(=O)[C@@H](N)Cc1c[nH]cn1)[C@@H](C)O)[C@@H](C)O)C(=O)N[C@@H](CCC(=O)O)C(=O)N[C@@H](CCC(=O)O)C(=O)N[C@@H](CCC(=O)O)C(=O)N[C@@H](C)C(=O)N[C@H](C(=O)N[C@@H](CCCNC(=N)N)C(=O)N[C@@H](CC(C)C)C(=O)N[C@@H](Cc1ccccc1)C(=O)N[C@H](C(=O)N[C@@H](CCC(=O)O)C(=O)N[C@@H](Cc1c[nH]c2ccccc12)C(=O)N[C@@H](CC(C)C)C(=O)N[C@@H](CCCCN)C(=O)N[C@@H](C)C(=O)NCC(=O)NCC(=O)N1CCC[C@H]1C(=O)N[C@@H](CO)C(=O)N[C@@H](CO)C(=O)NCC(=O)N[C@@H](C)C(=O)N1CCC[C@H]1C(=O)N1CCC[C@H]1C(=O)N1CCC[C@H]1C(=O)N[C@@H](CO)C(N)=O)[C@@H](C)CC)C(C)C)C(=O)O)C(=O)O` [compound 24], the EC50 in data set [2] was 0.0045 nM.

Regarding `CCCCCCCCCCCCCCCCCC(=O)N[C@@H](CCC(=O)NCCCC[C@H](NC(=O)[C@H](CCC(N)=O)NC(=O)[C@H](CCCCN)NC(=O)[C@H](CO)NC(=O)[C@H](CC(C)C)NC(=O)[C@H](CC(=O)O)NC(=O)[C@H](CO)NC(=O)[C@@H](NC(=O)[C@H](Cc1ccccc1)NC(=O)[C@@H](NC(=O)CNC(=O)[C@H](Cc1c[nH]cn1)NC(=O)[C@@H](CO)NC(=O)[C@@H](N)Cc1c[nH]cn1)[C@@H](C)O)[C@@H](C)O)C(=O)N[C@@H](CCC(=O)O)C(=O)N[C@@H](CCC(=O)O)C(=O)N[C@@H](CCC(=O)O)C(=O)N[C@@H](C)C(=O)N[C@H](C(=O)N[C@@H](CCCNC(=N)N)C(=O)N[C@@H](CC(C)C)C(=O)N[C@@H](Cc1ccccc1)C(=O)N[C@H](C(=O)N[C@@H](CCC(=O)O)C(=O)N[C@@H](Cc1c[nH]c2ccccc12)C(=O)N[C@@H](CC(C)C)C(=O)N[C@@H](CCCCN)C(=O)N[C@@H](C)C(=O)NCC(=O)NCC(=O)N1CCC[C@H]1C(=O)N[C@@H](CO)C(=O)N[C@@H](CO)C(=O)NCC(=O)N[C@@H](C)C(=O)N1CCC[C@H]1C(=O)N1CCC[C@H]1C(=O)N1CCC[C@H]1C(=O)N[C@@H](CO)C(N)=O)[C@@H](C)CC)C(C)C)C(=O)O` [compound 25], the EC50 was 0.0081 nM in data set [2], 0.407 nM in data set [3] and 0.0399 nM in data set [4].

As to `CCCCCCCCCCCCCCCC(=O)N[C@@H](CCC(=O)N[C@@H](CCC(=O)NCCCC[C@H](NC(=O)[C@H](CCC(N)=O)NC(=O)[C@H](CCCCN)NC(=O)[C@H](CO)NC(=O)[C@H](CC(C)C)NC(=O)[C@H](CC(=O)O)NC(=O)[C@H](CO)NC(=O)[C@@H](NC(=O)[C@H](Cc1ccccc1)NC(=O)[C@@H](NC(=O)CNC(=O)[C@H](Cc1c[nH]cn1)NC(=O)[C@@H](CO)NC(=O)[C@@H](N)Cc1c[nH]cn1)[C@@H](C)O)[C@@H](C)O)C(=O)N[C@@H](CCC(=O)O)C(=O)N[C@@H](CCC(=O)O)C(=O)N[C@@H](CCC(=O)O)C(=O)N[C@@H](C)C(=O)N[C@H](C(=O)N[C@@H](CCCNC(=N)N)C(=O)N[C@@H](CC(C)C)C(=O)N[C@@H](Cc1ccccc1)C(=O)N[C@H](C(=O)N[C@@H](CCC(=O)O)C(=O)N[C@@H](Cc1c[nH]c2ccccc12)C(=O)N[C@@H](CC(C)C)C(=O)N[C@@H](CCCCN)C(=O)N[C@@H](C)C(=O)NCC(=O)NCC(=O)N1CCC[C@H]1C(=O)N[C@@H](CO)C(=O)N[C@@H](CO)C(=O)NCC(=O)N[C@@H](C)C(=O)N1CCC[C@H]1C(=O)N1CCC[C@H]1C(=O)N1CCC[C@H]1C(=O)N[C@@H](CO)C(N)=O)[C@@H](C)CC)C(C)C)C(=O)O)C(=O)O` [compound 13], the EC50 in data set [3] was 0.079 nM; in data set [4] it was 0.0225 nM.

As for `CCCCCCCCCCCCCCCCCC(=O)N[C@@H](CCC(=O)NCCCC[C@H](NC(=O)[C@H](CCC(N)=O)NC(=O)[C@H](CCCCN)NC(=O)[C@H](CO)NC(=O)[C@H](CC(C)C)NC(=O)[C@H](CC(=O)O)NC(=O)[C@H](CO)NC(=O)[C@@H](NC(=O)[C@H](Cc1ccccc1)NC(=O)[C@@H](NC(=O)CNC(=O)[C@H](Cc1c[nH]cn1)NC(=O)C(C)(C)NC(=O)[C@@H](N)Cc1c[nH]cn1)[C@@H](C)O)[C@@H](C)O)C(=O)N[C@@H](CCC(=O)O)C(=O)N[C@@H](CCC(=O)O)C(=O)N[C@@H](CCC(=O)O)C(=O)N[C@@H](C)C(=O)N[C@H](C(=O)N[C@@H](CCCNC(=N)N)C(=O)N[C@@H](CC(C)C)C(=O)N[C@@H](Cc1ccccc1)C(=O)N[C@H](C(=O)N[C@@H](CCC(=O)O)C(=O)N[C@@H](Cc1c[nH]c2ccccc12)C(=O)N[C@@H](CC(C)C)C(=O)N[C@@H](CCCCN)C(=O)N[C@@H](C)C(=O)NCC(=O)NCC(=O)N1CCC[C@H]1C(=O)N[C@@H](CO)C(=O)N[C@@H](CO)C(=O)NCC(=O)N[C@@H](C)C(=O)N1CCC[C@H]1C(=O)N1CCC[C@H]1C(=O)N1CCC[C@H]1C(=O)N[C@@H](CO)C(N)=O)[C@@H](C)CC)C(C)C)C(=O)O` [compound 7], the EC50 in data set [2] came out at 0.0065 nM; in data set [3], 0.0256 nM; in data set [4] it was 0.0058 nM.

For `CCCCCCCCCCCCCCCCCC(=O)N[C@@H](CCC(=O)NCCCC[C@H](NC(=O)[C@H](CCC(N)=O)NC(=O)[C@H](CCCCN)NC(=O)[C@H](CO)NC(=O)[C@H](CC(C)C)NC(=O)[C@H](CC(=O)O)NC(=O)[C@H](CO)NC(=O)[C@@H](NC(=O)[C@H](Cc1ccccc1)NC(=O)[C@@H](NC(=O)CNC(=O)[C@H](Cc1c[nH]cn1)NC(=O)[C@H](CO)NC(=O)[C@@H](N)Cc1c[nH]cn1)[C@@H](C)O)[C@@H](C)O)C(=O)N[C@@H](CCC(=O)O)C(=O)N[C@@H](CCC(=O)O)C(=O)N[C@@H](CCC(=O)O)C(=O)N[C@@H](C)C(=O)N[C@H](C(=O)N[C@@H](CCCNC(=N)N)C(=O)N[C@@H](CC(C)C)C(=O)N[C@@H](Cc1ccccc1)C(=O)N[C@H](C(=O)N[C@@H](CCC(=O)O)C(=O)N[C@@H](Cc1c[nH]c2ccccc12)C(=O)N[C@@H](CC(C)C)C(=O)N[C@@H](CCCCN)C(=O)N[C@@H](C)C(=O)NCC(=O)NCC(=O)N1CCC[C@H]1C(=O)N[C@@H](CO)C(=O)N[C@@H](CO)C(=O)NCC(=O)N[C@@H](C)C(=O)N1CCC[C@H]1C(=O)N1CCC[C@H]1C(=O)N1CCC[C@H]1C(=O)N[C@@H](CO)C(N)=O)[C@@H](C)CC)C(C)C)C(=O)O` [compound 10], the solubility at 2 h in data set [1] (pH 4.5, target concentration 10 mg/ml, 2 h agitation, read-out: Solubility (pH 4.5)) was above 5000 µg/mL; in data set [1] (pH 7.4, target concentration 10 mg/ml, 2 h agitation, read-out: Solubility (pH 7.4)), above 5000 µg/mL. In addition, in data set [5] (pH 4.5, 7 days at 40° C. in solution), the “Stability (pH 4.5), % remaining peptide” value worked out at 92.7%. Moreover, the “Stability (pH 7.4), % remaining peptide” value in data set [5] (pH 7.4, 7 days at 40° C. in solution) was 93.4%.

As a reminder, the solubility is how much of the substance goes into solution per volume. The EC50 is the concentration at which the effect is half-maximal.
